These results are taken from EP2450046B1, “A MEDICINAL COMPOSITION FOR THE TREATMENT OF BRONCHITIS AND PREPARATION THEREOF” (Hebei Yiling Medicine Research Institute Co., Ltd., priority 2009, dated 2011).

Structures are written as SMILES. Where a name gives a salt, the structure may show the parent alone.

Assay [1] relates to panting in the guinea pig induced by histamine plus acetylcholine. In words: Dyspnea-relieving effect on panting in the guinea pig induced by histamine plus acetylcholine. It is filed as in vivo, guinea pigs. The note with it: Aminophylline 0.05 g/kg i.g. q.d. 3 days, n=10.
Text: Sixty white purebred guinea pigs of Grade I evenly composed of males and females with the mean body weight of 198.55 ± 6.30g, provided by Beijing Keyu Animal Breeding Center, License number: SCXK (Jing) 2002-0005.
The healthy guinea pigs evenly composed of males and females were screened preciously. The guinea pigs were individually placed into the 4 L bell-shape glass container and sprayed with a mixed liquid of 2 % acetylcholine chloride and 0.1 % histamine phosphate in equal volumes at a pressure of 400 mmHg for 20s. […] The guinea pig showing the incubation period for asthmatic convulsion above 120s would not be chosen. […] The animals in the test groups were intragastrically administered q.d. at a volume of 5 ml/kg for consecutive three days, while the animals in the control group were administered with equal amount of physiological saline. An asthma-inducing experiment was performed in 30 min post the final administration. The guinea pigs were individually placed into the 4 L bell-shape glass container and sprayed with a mixed liquid of 2 % acetylcholine chloride plus 0.1 % histamine phosphate in equal volumes at a pressure of 400 mmHg for 20s. […] The incubation period lasting for more than 6 min was counted as 360 s. The experimental results were compared among the groups by t-test.
Assay [2] concerns citric acid-induced cough. In words: Cough-checking effect on citric acid-induced cough in guinea pigs. Particulars: CHT 7mg/kg i.g. q.d. 3 days; n=10. It is filed as in vivo. As to the method:
• (1) The present medication to be tested, 6.25g crude drugs/g, provided by Shijiazhuang Yiling Pharmaceutical Co. Ltd., lot number: 060501. • (2) GLKCNC as the traditional Chinese medicine control, 1g crude drugs/pill (0.3g of powder per pill), produced by Shanxi Guilong pharmaceutical Co., Ltd., Approval number: SFDA Approval No. Z-11; Lot number of the product: 060112; valid until December 2007. • (3) CHT as the Western medicine control, 10 mg/tablet, produced by Beijing Shuguang Pharmaceutical Co., Ltd., production date: 200606; lot number: 060619; valid until June, 2008.
Sixty purebred guinea pigs of Grade I evenly composed of males and females with the mean body weight of 206.65 ± 6.92g, provided by Beijing Keyu Animal Breeding Center, License number: SCXK (Jing) 2002-0005.
The guinea pigs were individually placed into the sealed 4L bell-shape container with prior to the experiment and a solution of 17.5% citric acid was sprayed for 1 minute at a pressure of 400 mmHg through the glass sparger. The guinea pigs were screened according to the cough number recorded within 5 minutes Guinea pigs with a cough number of less than 10 were rejected and the qualified ones were chosen for the experiment. […]

In assay [3] the test system is aqueous ammonia-induced cough in mice. In words: Cough-checking effect on the aqueous ammonia-induced cough in mice. It is filed as in vivo, Kunming mice. Particulars: CHT 12mg/kg i.g. q.d. 3 days; n=10. As for the experimental part: • (1) The present medication to be tested, 6.25g crude drugs/g (i.e.,1g of the medication was made from 6.25g crude drugs), provided by Shijiazhuang Yiling Pharmaceutical Co. Ltd., lot number: 060501, and diluted to required concentrations with distilled water in the experiment. • (2) Cloperastine Hydrochloride Tablet (CHT) as the positive control of a western medicine, 10mg/tablet, produced by Beijing Shuguang Pharmaceutical Co., Ltd. lot number: 060619, and valid until June, 2008. • (3) Gui Long Ke Chuan Ning Capsule (GLKCNC) as the positive control of a traditional Chinese medicine, 1g crude drugs/pill (0.3g of powder per pill), produced by Shanxi Guilong pharmaceutical Co., Ltd., Approval number: SFDA Approval No. Z-11; Lot number of the product: 060112; valid until December 2007.
Sixty Kunming mice of Grade II evenly composed of males and females with the mean body weight of 19.90 ± 0.66 g, provided by Institute of Laboratory Animal Science, Chinese Academy of Medical Sciences, License number: SCXK (Jing) 2000-0006. […]

In a further assay the test system is sputum volume in rats. Nature of the assay: Effect on sputum volume in rats measured by capillary. It is filed as in vivo. As for the experimental part: • (1) The present medication to be tested, 6.25 g of crude drug/g, provided by Shijiazhuang Yiling Pharmaceutical Co. Ltd., lot number: 060501. • (2) GLKCNC as the traditional Chinese medicine control, 1g crude drugs/pill (0.3g of powder per pill), produced by Shanxi Guilong pharmaceutical Co., Ltd., Approval number: SFDA Approval No. Z-11; Lot number of the product: 060112; valid until December 2007. • (3) Mucosolvan as a western medicine control, 30mg/tablet, the product of Boehringer Ingelheim Int. Ltd. German, lot number: 206362, distribution lot number:030307.
Sixty SPF Wistar […] evenly composed of males and females with the mean body weight of 174.38 ± 7.64 g, provided by Institute of Laboratory Animal Science, Chinese Acadamy of Medical Sciences, and License number: SCXK (Jing) 2000-0006.
The sixty healthy rats were randomly assigned into the following six groups: (1) the blank control group administered with distilled water (10 ml/kg); (2) the Mucosolvan group (11 mg /kg); (3) the GLKCNC group (1.5 g crude drug/kg); (4) the low dosage group of the present medication (L-dosage group, 2 g crude drug/kg); (5) the medium dosage group of the present medication (M-dosage group, 4 g crude drug/kg); (6)the high dosage group of the present medication (H-dosage group, 8 g crude drug/kg). […] The skin of neck was incised and the trachea was separated, on which an orifice was pricked with a syringe needle at the median site of the lower edge of the thyroid cartilage between the two cartilages. A piece of glass capillary with the length of 5 cm and the inner diameter of 0.8 mm was inserted through the orifice in a way such that the glass capillary was just contact the inner wall of the trachea. When the glass capillary was filled up with sputum, it would be replaced immediately with another one. The sputum volume in capillaries was determined in 1 hour prior to the administration. One hour later, the animals in the experimental group were administered duodenally with the medications at a volume of 10 ml/kg, while the animals in the control group were administered with equal amount of physiological saline. […] Comparisons among the groups were performed by t-test with the average amount of the secretion in 1 hour prior to administration serving as a normal value.

The next assay relates to sputum volume in mice. In words: Effect on sputum volume in mice measured by phenol red. It is filed as in vivo, ICR mice. Particulars: Mucosolvan 16mg/kg i.g. q.d. 3 days; n=10. As for the experimental part: • (1) The present medication to be tested, 6.25 g crude drugs/g, provided by Shijiazhuang Yiling Pharmaceutical Co. Ltd., lot number: 060501. • (2) GLKCNC as the traditional Chinese medicine control, 1g crude drugs/pill (0.3g of powder per pill), produced by Shanxi Guilong pharmaceutical Co., Ltd., Approval number: SFDA Approval No. Z-11; Lot number of the product: 060112; valid until December 2007. • (3) Mucosolvan as a western medicine control, 30mg/tablet, the product of Boehringer Ingelheim Int. Ltd. German, lot number: 206362, distribution lot number:030307. […]
Sixty healthy mice were randomly assigned into the following six groups: (1) the blank control group administered with distilled water (25 ml/kg); (2) the Mucosolvan group (16 mg/kg); (3) the GLKCNC group (2 g crude drugs/kg); (4) the low dosage group of the present medication (L-dosage group, 3 g crude drugs/kg); (5) the medium dosage group of the present medication (M-dosage group, 6 g crude drugs/kg); (6)the high dosage group of the present medication (H-dosage group, 12 g crude drugs/kg). […] The optical density (OD) value of the flush liquid was measured by a UV-visible spectrophotometer UV-120-02 at a wavelength of 546nm, in which the level of phenol red in the flush liquid (µg/ml) was calculated on the basis of phenol red standard curve. […]

The mark [4] stands for this setting: Mucosolvan 11mg/kg duodenal, n=10.
Setting [5] is: Mucosolvan 11mg/kg duodenal, vs 1 h prior to administration.

On to `Cn1c(=O)c2[nH]cnc2n(C)c1=O` [Aminophylline], for which, in assay [1], the Falling-down time turned out to be 358.5 ± 3.4 s. In addition, in assay [1] (more than 6 min counted as 360 s), the Incubation period worked out at 228.0 ± 43.3 s.
On to `Clc1ccc(C(OCCN2CCCCC2)c2ccccc2)cc1` (centres unmarked) [CHT, Cloperastine Hydrochloride], for which the Cough number in assay [2] is given as 6.10±3.57 times/5min; in assay [3], 28.40±9.75 times /3 min. Further, the Incubation period was 196.80 ± 66.22 s in assay [2] and 118.30 ± 27.23 s in assay [3].
For `Cl.Nc1c(Br)cc(Br)cc1CNC1CCC(O)CC1` (centres unmarked) [Mucosolvan], in the assay with sputum volume in rats (setting [4]), the “Excretion value, 1 h post administration” value stood at 8.76±2.51 cm and the “Excretion value, 2 h post administration” value was 8.50±1.79 cm. In the assay on sputum volume in rats (setting [5]), the “Excretion value, Change rate, 1 h post administration” value came out at 238.05±77.76%; the “Excretion value, Change rate, 2 h post administration” value turned out to be 67.48±11.94%; the “Excretion value, Difference, 1 h post administration” value was 6.01±1.56 cm; the “Excretion value, Difference, 2 h post administration” value is on record as 5.75±1.64 cm. Moreover, the “Excretion value, 1 h prior to administration” value in the assay on sputum volume in rats (Mucosolvan group 11mg/kg, baseline before dosing, n=10) worked out at 2.75±1.08 cm. The “Amount of excreted phenol red” value in the assay with sputum volume in mice stood at 1.538 ± 0.486 µg/mL.
